Tested on: Energy system protein genes
Test: DNA chip mRNA expression in yeast, energy system protein genes (Table 4)
Format: cell-based, Saccharomyces cerevisiae S288C
Description: Yeast (Saccharomyces cerevisiae S288C (α SUC2mal mel gap2 CUP1)) were incubated at 25° C. on YPD medium (yeast extract 1%, polypepton 2%, glucose 2%). One of toxic chemical substances was added to the cells at logarithmic growth phase, and the cells were further incubated for two hours. Cells were cultured without any chemical substance in the same condition, and were used as control. Concentrations of the chemical substances were defined to inhibit the growth of the yeast but not lead to death.
After completion of the incubation, the culture was centrifuged to collect the cells. To the cells, sodium acetate buffer (50 mM sodium acetate, 10 mM EDTA, 1% SDS) was added, and the mixture was shaken at 65° C. for five minutes, followed by returning to room temperature, and obtaining the supernatant, of which the procedures were repeated two times. To the supernatant, ½ amount of a solution of phenol/chloroform was added, and the mixture was centrifuged to give a supernatant, which was added with an equal amount of chloroform, and the mixture was centrifuged to give a supernatant. To the supernatant, an equal amount of isopropanol containing 0.3 M sodium acetate was added, and the mixture was allowed to stand at room temperature for 30 minutes, after which the mixture was centrifuged to give a sediment of the whole RNAs. Seventy % ethanol was added to the sediment, and the mixture was again centrifuged to give a sediment, which was then dried and dissolved in water. mRNA was isolated from the whole RNAs as followings. In view of the fact that a poly A chain is attached to the 3′ terminus of mRNA, a polynucleotide having a poly T structure which was immobilized on the surface of latex beads was used to trap the mRNA, and then the mRNA was washed and eluted with spine column (Oligotex-dT30<Super>mRNA Purification Kit, Takara). Reverse transcription of the mRNA was conducted with a reverse transcriptase (Super Script II Reverse Transcriptase; catalogue No. 18064-014, GibcoBRL) using fluorescence-labeled nucleotides to give cDNAs that were introduced with Cy3-dUTP or Cy5-dUTP during the reverse transcription.
The labeled cDNAs were dissolved in TE buffer (10mM Tris-HCl/1 mM EDTA, pH8.0), and the solution was dropped on the DNA chip containing the whole genes of yeast (DNA Chip Research Inc. Japan) so that the cDNAs were hybridized on the DNA chip at 65° C. for over 12 hours. The fluoresces intensity of the DNA chip was read with a scanner, and the ratio relative to the fluorescence intensity resulting from the absence of chemical substance was estimated as the following, which is shown in Tables 1 to 9: […]

With `[Cl][Hg][Cl]` [(3), HgCl2] the “The level of expressed mRNA in the presence of chemical substance/The level of expressed mRNA in the absence of chemical substance” value (yeast gene YAL060W) was 3.2, the “The level of expressed mRNA in the presence of chemical substance/The level of expressed mRNA in the absence of chemical substance” value (yeast gene YBL058W, cells incubated two hours with the chemical substance) was 0.5 and the “The level of expressed mRNA in the presence of chemical substance/The level of expressed mRNA in the absence of chemical substance” value (yeast gene YBL099W, cells incubated two hours with the chemical substance) was 3.1. For the same compound, the “The level of expressed mRNA in the presence of chemical substance/The level of expressed mRNA in the absence of chemical substance” value (yeast gene YBR001C, cells incubated two hours with the chemical substance) was 1.1, the “The level of expressed mRNA in the presence of chemical substance/The level of expressed mRNA in the absence of chemical substance” value (yeast gene YBR185C, cells incubated two hours with the chemical substance) was 1.3 and the “The level of expressed mRNA in the presence of chemical substance/The level of expressed mRNA in the absence of chemical substance” value (yeast gene YBR221C, cells incubated two hours with the chemical substance) was 3.2. The “The level of expressed mRNA in the presence of chemical substance/The level of expressed mRNA in the absence of chemical substance” value (yeast gene YCL040W) was 10.1, the “The level of expressed mRNA in the presence of chemical substance/The level of expressed mRNA in the absence of chemical substance” value (yeast gene YCR012W) was 5.1 and the “The level of expressed mRNA in the presence of chemical substance/The level of expressed mRNA in the absence of chemical substance” value (yeast gene YCR046C, cells incubated two hours with the chemical substance) was 1.2. For the same compound, the “The level of expressed mRNA in the presence of chemical substance/The level of expressed mRNA in the absence of chemical substance” value (yeast gene YCR105W, cells incubated two hours with the chemical substance) was 1.2, the “The level of expressed mRNA in the presence of chemical substance/The level of expressed mRNA in the absence of chemical substance” value (yeast gene YDL021W) was 2.4 and the “The level of expressed mRNA in the presence of chemical substance/The level of expressed mRNA in the absence of chemical substance” value (yeast gene YDL067C, cells incubated two hours with the chemical substance) was 1.6. The “The level of expressed mRNA in the presence of chemical substance/The level of expressed mRNA in the absence of chemical substance” value (yeast gene YDL078C, cells incubated two hours with the chemical substance) was 1.2, the “The level of expressed mRNA in the presence of chemical substance/The level of expressed mRNA in the absence of chemical substance” value (yeast gene YDL107W, cells incubated two hours with the chemical substance) was 1.0 and the “The level of expressed mRNA in the presence of chemical substance/The level of expressed mRNA in the absence of chemical substance” value (yeast gene YDL174C) was 0.9. The “The level of expressed mRNA in the presence of chemical substance/The level of expressed mRNA in the absence of chemical substance” value (yeast gene YDL181W, cells incubated two hours with the chemical substance) was 1.9, the “The level of expressed mRNA in the presence of chemical substance/The level of expressed mRNA in the absence of chemical substance” value (yeast gene YDR001C) was 2.6 and the “The level of expressed mRNA in the presence of chemical substance/The level of expressed mRNA in the absence of chemical substance” value (yeast gene YDR050C, cells incubated two hours with the chemical substance) was 2.3. The “The level of expressed mRNA in the presence of chemical substance/The level of expressed mRNA in the absence of chemical substance” value (yeast gene YDR079W, cells incubated two hours with the chemical substance) was 0.8, the “The level of expressed mRNA in the presence of chemical substance/The level of expressed mRNA in the absence of chemical substance” value (yeast gene YDR178W, cells incubated two hours with the chemical substance) was 3.4 and the “The level of expressed mRNA in the presence of chemical substance/The level of expressed mRNA in the absence of chemical substance” value (yeast gene YDR231C) was 1.0. For the same compound, the “The level of expressed mRNA in the presence of chemical substance/The level of expressed mRNA in the absence of chemical substance” value (yeast gene YDR298C, cells incubated two hours with the chemical substance) was 2.6, the “The level of expressed mRNA in the presence of chemical substance/The level of expressed mRNA in the absence of chemical substance” value (yeast gene YDR377W, cells incubated two hours with the chemical substance) was 1.3 and the “The level of expressed mRNA in the presence of chemical substance/The level of expressed mRNA in the absence of chemical substance” value (yeast gene YDR529C, cells incubated two hours with the chemical substance) was 0.9. The “The level of expressed mRNA in the presence of chemical substance/The level of expressed mRNA in the absence of chemical substance” value (yeast gene YEL024W, cells incubated two hours with the chemical substance) was 3.8, the “The level of expressed mRNA in the presence of chemical substance/The level of expressed mRNA in the absence of chemical substance” value (yeast gene YEL039C, cells incubated two hours with the chemical substance) was 1.3 and the “The level of expressed mRNA in the presence of chemical substance/The level of expressed mRNA in the absence of chemical substance” value (yeast gene YER178W) was 3.6. For the same compound, the “The level of expressed mRNA in the presence of chemical substance/The level of expressed mRNA in the absence of chemical substance” value (yeast gene YFL057C) was 1.5, the “The level of expressed mRNA in the presence of chemical substance/The level of expressed mRNA in the absence of chemical substance” value (yeast gene YFR053C) was 3.0 and the “The level of expressed mRNA in the presence of chemical substance/The level of expressed mRNA in the absence of chemical substance” value (yeast gene YGL018C, cells incubated two hours with the chemical substance) was 1.8. For the same compound, the “The level of expressed mRNA in the presence of chemical substance/The level of expressed mRNA in the absence of chemical substance” value (yeast gene YGL062W) was 1.1, the “The level of expressed mRNA in the presence of chemical substance/The level of expressed mRNA in the absence of chemical substance” value (yeast gene YGL187C, cells incubated two hours with the chemical substance) was 1.6 and the “The level of expressed mRNA in the presence of chemical substance/The level of expressed mRNA in the absence of chemical substance” value (yeast gene YGL191W, cells incubated two hours with the chemical substance) was 1.4. The “The level of expressed mRNA in the presence of chemical substance/The level of expressed mRNA in the absence of chemical substance” value (yeast gene YGL205W, cells incubated two hours with the chemical substance) was 0.7, the “The level of expressed mRNA in the presence of chemical substance/The level of expressed mRNA in the absence of chemical substance” value (yeast gene YGL256W, cells incubated two hours with the chemical substance) was 1.1 and the “The level of expressed mRNA in the presence of chemical substance/The level of expressed mRNA in the absence of chemical substance” value (yeast gene YGR043C) was 3.2. The “The level of expressed mRNA in the presence of chemical substance/The level of expressed mRNA in the absence of chemical substance” value (yeast gene YGR062C, cells incubated two hours with the chemical substance, 25° C., YPD medium) was 0.7, the “The level of expressed mRNA in the presence of chemical substance/The level of expressed mRNA in the absence of chemical substance” value (yeast gene YGR087C, cells incubated two hours with the chemical substance) was 1.7 and the “The level of expressed mRNA in the presence of chemical substance/The level of expressed mRNA in the absence of chemical substance” value (yeast gene YGR174C, cells incubated two hours with the chemical substance) was 0.6. The “The level of expressed mRNA in the presence of chemical substance/The level of expressed mRNA in the absence of chemical substance” value (yeast gene YGR192C) was 3.8, the “The level of expressed mRNA in the presence of chemical substance/The level of expressed mRNA in the absence of chemical substance” value (yeast gene YGR244C) was 1.6 and the “The level of expressed mRNA in the presence of chemical substance/The level of expressed mRNA in the absence of chemical substance” value (yeast gene YGR254W) was 3.8. The “The level of expressed mRNA in the presence of chemical substance/The level of expressed mRNA in the absence of chemical substance” value (yeast gene YHR179W) was 2.6, the “The level of expressed mRNA in the presence of chemical substance/The level of expressed mRNA in the absence of chemical substance” value (yeast gene YIL160C) was 2.3 and the “The level of expressed mRNA in the presence of chemical substance/The level of expressed mRNA in the absence of chemical substance” value (yeast gene YIR031C, cells incubated two hours with the chemical substance) was 0.6. The “The level of expressed mRNA in the presence of chemical substance/The level of expressed mRNA in the absence of chemical substance” value (yeast gene YJL052W) was 4.0, the “The level of expressed mRNA in the presence of chemical substance/The level of expressed mRNA in the absence of chemical substance” value (yeast gene YJL121C, cells incubated two hours with the chemical substance) was 1.9 and the “The level of expressed mRNA in the presence of chemical substance/The level of expressed mRNA in the absence of chemical substance” value (yeast gene YJL166W, cells incubated two hours with the chemical substance) was 1.6. For the same compound, the “The level of expressed mRNA in the presence of chemical substance/The level of expressed mRNA in the absence of chemical substance” value (yeast gene YJL216C, cells incubated two hours with the chemical substance) was 2.2 and the “The level of expressed mRNA in the presence of chemical substance/The level of expressed mRNA in the absence of chemical substance” value (yeast gene YJR009C) was 5.6.

— patent US8192962B2, “Processes for detecting toxic substances” (Daikin Industries, Ltd., priority 2001, dated 2012)
